Key:
Test in all cases: Inhibition zone, disc on seeded Heart infusion agar
Assay type in all cases: cell-based
[1] = system: Staphylococcus aureus 209 P; conditions: disc dipped in 125 mcg/ml solution, read-out: diameter of the inhibition zone
Text: (§1) Antimicrobial activities of Y-G19ZD3 in comparison with those of Cephalosporin C against various microorganisms are shown in Table 3. The figure indicates the diameter (mm) of the inhibition zone obtained with a disc dipped in 125 mcg/ml solution on Heart infusion agar seeded with each organism.

[2] = system: Proteus vulgaris; conditions: disc dipped in 125 mcg/ml solution, read-out: diameter of the inhibition zone
Text: as §1

[3] = system: Basillus subtilis ATCC 6633; conditions: read-out: diameter of the inhibition zone
Text: as §1

[4] = system: Proteus mirabilis IMF-OM9; conditions: IMFOM9, read-out: diameter of the inhibition zone
Text: as §1

[5] = system: Proteus morganii; conditions: Morganella morganii, disc dipped in 125 mcg/ml solution, read-out: diameter of the inhibition zone
Text: as §1

[6] = system: Sarcina lutea ATCC 9941; conditions: Micrococcus luteus, ATCC9941, read-out: diameter of the inhibition zone
Text: as §1

[7] = system: Klebsiella pneumoniae; conditions: disc dipped in 125 mcg/ml solution, read-out: diameter of the inhibition zone
Text: as §1

CC(=O)OCC1=C(C(=O)O)N2C(=O)[C@@H](NC(=O)CCC[C@@H](N)C(=O)O)[C@H]2SC1 [Cephalosporin C]
zone of inhibition at 125 µg/mL [1]: 0 mm
zone of inhibition at 125 µg/mL [2]: 0 mm
zone of inhibition at 125 µg/mL [3]: 13.5 mm
zone of inhibition at 125 µg/mL [4]: 17.6 mm
zone of inhibition at 125 µg/mL [5]: 0 mm
zone of inhibition at 125 µg/mL [6]: 0 mm
zone of inhibition at 125 µg/mL [7]: 0 mm

Source: US4039660A, “Antibiotic Y-G19Z D3 and the production thereof” (Yamanouchi Pharmaceutical Co., Ltd., priority 1974, dated 1977)
